Laboratory results from patent publication US9340590B2 (priority 2011, dated 2016).
Like-named read-outs stand apart in the source and are kept apart here. Positions of bridges follow the written chain, without caps; N, C: chain ends. Non-standard residues stand in square brackets, D forms with d. Residues, ends and D or L forms follow the SMILES beside them. 1Nal = N[C@@H](Cc1cccc2ccccc12)C(=O)O; 2Nal = N[C@@H](Cc1ccc2ccccc2c1)C(=O)O; Abu = CC[C@H](N)C(=O)O

What was measured:
Assay in all cases: cell-based
hNav1.3 = hNav1.3 (Homo sapiens, UniProt Q9NY46); settings: IonWorks Quattro, read-out: IWQ Use Nav1.3
hNav1.5 = hNav1.5 (Homo sapiens, UniProt Q14524); settings: IonWorks Quattro, read-out: IWQ Use Nav1.5
Sequence of hNav1.5 (Q14524 whole entry, looked up): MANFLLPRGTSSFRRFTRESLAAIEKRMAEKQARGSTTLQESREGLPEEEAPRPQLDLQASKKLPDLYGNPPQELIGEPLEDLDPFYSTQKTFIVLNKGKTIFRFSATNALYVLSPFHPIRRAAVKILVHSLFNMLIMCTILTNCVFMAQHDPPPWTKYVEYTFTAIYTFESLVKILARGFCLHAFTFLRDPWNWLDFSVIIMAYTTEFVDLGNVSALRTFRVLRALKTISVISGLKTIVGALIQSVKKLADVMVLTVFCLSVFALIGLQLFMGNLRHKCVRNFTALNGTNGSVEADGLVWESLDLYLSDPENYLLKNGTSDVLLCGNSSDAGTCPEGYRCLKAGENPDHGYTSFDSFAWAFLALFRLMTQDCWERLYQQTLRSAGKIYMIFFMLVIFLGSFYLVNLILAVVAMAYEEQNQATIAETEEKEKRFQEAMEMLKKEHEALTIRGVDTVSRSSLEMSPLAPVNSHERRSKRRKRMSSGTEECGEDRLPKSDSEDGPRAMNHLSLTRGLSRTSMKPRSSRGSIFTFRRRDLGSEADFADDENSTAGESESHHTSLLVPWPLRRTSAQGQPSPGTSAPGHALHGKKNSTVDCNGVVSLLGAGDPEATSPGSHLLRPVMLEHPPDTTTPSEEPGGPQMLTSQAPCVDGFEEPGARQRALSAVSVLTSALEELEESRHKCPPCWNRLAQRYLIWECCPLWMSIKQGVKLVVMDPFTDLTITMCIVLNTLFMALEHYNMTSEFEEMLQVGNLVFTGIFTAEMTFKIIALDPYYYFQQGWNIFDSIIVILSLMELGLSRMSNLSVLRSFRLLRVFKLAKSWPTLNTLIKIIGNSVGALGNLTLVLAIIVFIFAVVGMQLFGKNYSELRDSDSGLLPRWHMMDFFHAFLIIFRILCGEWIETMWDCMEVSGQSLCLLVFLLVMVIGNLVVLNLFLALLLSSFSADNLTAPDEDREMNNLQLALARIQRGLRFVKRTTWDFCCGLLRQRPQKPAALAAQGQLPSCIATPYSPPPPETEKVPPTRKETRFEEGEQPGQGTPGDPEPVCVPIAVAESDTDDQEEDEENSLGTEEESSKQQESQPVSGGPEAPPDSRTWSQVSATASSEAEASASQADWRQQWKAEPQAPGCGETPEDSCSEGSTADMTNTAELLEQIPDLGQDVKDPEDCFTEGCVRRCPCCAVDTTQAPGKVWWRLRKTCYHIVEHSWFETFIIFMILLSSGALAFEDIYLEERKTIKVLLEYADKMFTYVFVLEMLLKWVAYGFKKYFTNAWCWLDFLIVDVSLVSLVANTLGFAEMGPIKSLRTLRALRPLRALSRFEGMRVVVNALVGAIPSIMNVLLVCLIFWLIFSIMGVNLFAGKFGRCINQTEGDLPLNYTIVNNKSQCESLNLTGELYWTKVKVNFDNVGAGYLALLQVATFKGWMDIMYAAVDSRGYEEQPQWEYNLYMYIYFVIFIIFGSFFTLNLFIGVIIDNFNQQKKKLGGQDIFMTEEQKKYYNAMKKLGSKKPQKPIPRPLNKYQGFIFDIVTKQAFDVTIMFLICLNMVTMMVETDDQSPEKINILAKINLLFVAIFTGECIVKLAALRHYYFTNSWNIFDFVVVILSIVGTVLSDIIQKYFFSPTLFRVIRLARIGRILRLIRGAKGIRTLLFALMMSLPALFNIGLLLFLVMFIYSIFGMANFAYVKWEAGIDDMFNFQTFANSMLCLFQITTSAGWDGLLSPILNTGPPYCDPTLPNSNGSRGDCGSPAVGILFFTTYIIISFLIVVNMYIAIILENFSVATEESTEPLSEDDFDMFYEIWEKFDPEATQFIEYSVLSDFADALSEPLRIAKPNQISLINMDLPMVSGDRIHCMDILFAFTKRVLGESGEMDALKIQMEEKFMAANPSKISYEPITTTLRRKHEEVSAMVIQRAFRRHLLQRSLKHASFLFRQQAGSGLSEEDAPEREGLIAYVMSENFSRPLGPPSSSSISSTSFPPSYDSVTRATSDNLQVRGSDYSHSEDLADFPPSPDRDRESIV

hNav1.7 = hNav1.7 (Homo sapiens, UniProt Q15858); format: cell-based; settings: IonWorks Quattro
Sequence of hNav1.7 (Q15858 whole entry, looked up): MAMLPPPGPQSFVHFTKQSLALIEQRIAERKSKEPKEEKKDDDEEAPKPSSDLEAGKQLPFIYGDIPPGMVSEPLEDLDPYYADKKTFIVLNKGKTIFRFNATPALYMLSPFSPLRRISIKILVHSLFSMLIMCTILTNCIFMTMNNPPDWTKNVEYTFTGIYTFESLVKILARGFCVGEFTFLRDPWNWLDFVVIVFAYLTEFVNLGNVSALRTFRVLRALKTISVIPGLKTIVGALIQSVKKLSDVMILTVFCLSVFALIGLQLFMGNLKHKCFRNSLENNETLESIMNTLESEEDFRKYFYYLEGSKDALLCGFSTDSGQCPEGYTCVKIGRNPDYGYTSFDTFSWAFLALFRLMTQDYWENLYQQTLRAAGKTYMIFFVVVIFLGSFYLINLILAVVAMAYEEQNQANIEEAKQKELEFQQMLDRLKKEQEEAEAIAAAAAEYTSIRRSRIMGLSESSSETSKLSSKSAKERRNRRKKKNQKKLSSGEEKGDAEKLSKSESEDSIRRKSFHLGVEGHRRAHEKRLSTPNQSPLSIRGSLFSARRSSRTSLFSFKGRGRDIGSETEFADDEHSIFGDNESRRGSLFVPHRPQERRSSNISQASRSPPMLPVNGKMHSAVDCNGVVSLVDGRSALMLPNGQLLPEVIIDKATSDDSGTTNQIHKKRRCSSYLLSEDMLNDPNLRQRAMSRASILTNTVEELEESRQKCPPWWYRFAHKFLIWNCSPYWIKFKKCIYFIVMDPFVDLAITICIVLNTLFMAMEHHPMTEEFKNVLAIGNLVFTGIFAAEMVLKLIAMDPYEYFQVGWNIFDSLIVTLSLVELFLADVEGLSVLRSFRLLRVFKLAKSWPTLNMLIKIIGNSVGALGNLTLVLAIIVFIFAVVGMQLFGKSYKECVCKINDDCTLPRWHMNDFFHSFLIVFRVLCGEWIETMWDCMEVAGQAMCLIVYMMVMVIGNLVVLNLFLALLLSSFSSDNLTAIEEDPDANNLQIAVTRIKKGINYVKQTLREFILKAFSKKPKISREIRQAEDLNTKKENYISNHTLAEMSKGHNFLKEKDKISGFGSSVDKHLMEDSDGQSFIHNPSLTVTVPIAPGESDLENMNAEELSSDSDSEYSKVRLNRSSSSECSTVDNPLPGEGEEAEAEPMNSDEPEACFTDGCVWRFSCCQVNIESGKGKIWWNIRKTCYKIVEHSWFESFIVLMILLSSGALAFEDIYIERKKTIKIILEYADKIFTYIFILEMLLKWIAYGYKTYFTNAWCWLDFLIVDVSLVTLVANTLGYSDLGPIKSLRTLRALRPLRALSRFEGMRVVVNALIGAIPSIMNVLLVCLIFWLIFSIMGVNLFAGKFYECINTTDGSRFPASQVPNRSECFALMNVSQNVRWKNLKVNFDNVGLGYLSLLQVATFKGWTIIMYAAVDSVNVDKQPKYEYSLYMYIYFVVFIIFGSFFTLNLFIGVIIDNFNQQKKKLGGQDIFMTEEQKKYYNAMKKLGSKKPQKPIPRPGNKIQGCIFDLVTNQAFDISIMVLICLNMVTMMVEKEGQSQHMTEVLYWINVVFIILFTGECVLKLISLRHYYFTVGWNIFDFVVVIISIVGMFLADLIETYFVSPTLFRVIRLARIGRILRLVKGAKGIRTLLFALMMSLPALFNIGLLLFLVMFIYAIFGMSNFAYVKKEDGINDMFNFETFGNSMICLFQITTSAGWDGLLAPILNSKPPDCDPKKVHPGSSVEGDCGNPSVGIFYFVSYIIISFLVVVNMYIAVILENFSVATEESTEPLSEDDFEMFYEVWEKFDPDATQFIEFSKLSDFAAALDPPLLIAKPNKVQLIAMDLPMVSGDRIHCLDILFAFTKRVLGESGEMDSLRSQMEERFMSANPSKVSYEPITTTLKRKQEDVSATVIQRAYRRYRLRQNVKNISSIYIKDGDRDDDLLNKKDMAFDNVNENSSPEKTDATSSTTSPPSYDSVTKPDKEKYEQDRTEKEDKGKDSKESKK

[1] = use-dependent, […], read-out: IWQ Use Nav1.7 (μm)
[2] = use-dependent block, hNav1.7, read-out: IWQ Use Nav1.7

SMILES | IC50 (hNav1.3; use-dependent, […]) | IC50 (hNav1.5; use-dependent, […]) | IC50 (hNav1.7; [1]) | IC50 (hNav1.3; use-dependent block, hNav1.3) | IC50 (hNav1.5; use-dependent block, hNav1.5) | IC50 (hNav1.7; [2])
CC[C@H](C)[C@@H]1NC(=O)[C@@H]2CSSC[C@@H]3NC(=O)[C@H](C(C)C)NC(=O)[C@H](CC(C)C)NC(=O)[C@H](CC(N)=O)NC(=O)[C@@H]4CCCN4C(=O)[C@H](CCCNC(=N)N)NC(=O)[C@H](CSSC[C@H](NC(=O)[C@@H](N)CC(=O)O)C(=O)N[C@@H](CC(C)C)C(=O)NCC(=O)N[C@@H](Cc4ccccc4)C(=O)N[C@@H](CCSC)C(=O)N[C@@H](CCCNC(=N)N)C(=O)N[C@@H](CCCCN)C(=O)N2)NC(=O)[C@H](CSSC[C@@H](C(=O)N[C@@H](CCCCN)C(=O)N[C@@H](Cc2ccc(O)cc2)C(=O)N[C@H](C(=O)N[C@@H](Cc2ccccc2)C(=O)N[C@@H](Cc2ccc4ccccc4c2)C(N)=O)C(C)C)NC(=O)[C@H](Cc2c[nH]c4ccccc24)NC(=O)[C@H](CCCCN)NC(=O)[C@H](Cc2c[nH]cn2)NC(=O)[C@H]([C@@H](C)O)NC(=O)[C@H](CCCNC(=N)N)NC(=O)[C@H](CO)NC3=O)NC(=O)[C@H](CCCCN)NC(=O)[C@H](CC(=O)O)NC(=O)[C@H](CC(N)=O)NC(=O)[C@H](CC(=O)O)NC(=O)[C@@H]2CCCN2C1=O [compound 131] | 20 nM | 2550 nM | 50 nM | – | – | –
CC[C@H](C)[C@@H]1NC(=O)[C@@H]2CSSC[C@@H]3NC(=O)[C@H](C(C)C)NC(=O)[C@H](CC(C)C)NC(=O)[C@H](CC(N)=O)NC(=O)[C@@H]4CCCN4C(=O)[C@H](CCCNC(=N)N)NC(=O)[C@H](CSSC[C@H](NC(=O)[C@@H](N)CC(=O)O)C(=O)N[C@@H](CC(C)C)C(=O)NCC(=O)N[C@@H](Cc4ccccc4)C(=O)N[C@@H](CCSC)C(=O)N[C@@H](CCCNC(=N)N)C(=O)N[C@@H](CCCCN)C(=O)N2)NC(=O)[C@H](CSSC[C@@H](C(=O)N[C@@H](CCCCN)C(=O)N[C@@H](Cc2ccc(O)cc2)C(=O)N[C@H](C(=O)N[C@@H](Cc2ccccc2)C(=O)N[C@@H](Cc2c[nH]c4ccccc24)C(=O)O)C(C)C)NC(=O)[C@H](Cc2c[nH]c4ccccc24)NC(=O)[C@H](CCCCN)NC(=O)[C@H](Cc2c[nH]cn2)NC(=O)[C@H]([C@@H](C)O)NC(=O)[C@H](CCCNC(=N)N)NC(=O)[C@H](CO)NC3=O)NC(=O)[C@H](CCCCN)NC(=O)[C@H](CC(=O)O)NC(=O)[C@H](CC(N)=O)NC(=O)[C@H](CC(=O)O)NC(=O)[C@@H]2CCCN2C1=O [compound 133] | 110 nM | 8280 nM | 480 nM | – | – | –
CC[C@@H]1NC(=O)[C@H](CCCCN)NC(=O)[C@H](CCCNC(=N)N)NC(=O)[C@H](CCSC)NC(=O)[C@H](Cc2ccccc2)NC(=O)CNC(=O)[C@H](CC(C)C)NC(=O)[C@@H](NC(=O)[C@@H](N)CC(=O)O)CSSC[C@@H]2NC(=O)[C@H](CSSC[C@@H](C(=O)N[C@@H](CCCCN)C(=O)N[C@@H](Cc3ccc(O)cc3)C(=O)N[C@H](C(=O)N[C@@H](Cc3ccccc3)C(N)=O)C(C)C)NC(=O)[C@H](Cc3c[nH]c4ccccc34)NC(=O)[C@H](CCCCN)NC(=O)[C@H](Cc3c[nH]cn3)NC(=O)[C@H]([C@@H](C)O)NC(=O)[C@H](CCCNC(=N)N)NC(=O)[C@H](CO)NC(=O)[C@H](CC)NC(=O)[C@H](C(C)C)NC(=O)[C@H](CC(C)C)NC(=O)[C@H](CC(N)=O)NC(=O)[C@@H]3CCCN3C(=O)[C@H](CCCNC(=N)N)NC2=O)NC(=O)[C@H](CCCCN)NC(=O)[C@H](CC(=O)O)NC(=O)[C@H](CC(N)=O)NC(=O)[C@H](CC(=O)O)NC(=O)[C@@H]2CCCN2C(=O)[C@H]([C@@H](C)CC)NC1=O [compound 135] (H-DCLGFMRK[Abu]IPDNDKCCRPNLV[Abu]SRTHKWCKYVF-NH2; disulfide 2-17, 16-30) | – | – | – | 12300 nM | 9210 nM | 8140 nM
CC[C@H](C)[C@@H]1NC(=O)[C@@H]2CSSC[C@@H]3NC(=O)[C@H](C(C)C)NC(=O)[C@H](CC(C)C)NC(=O)[C@H](CC(N)=O)NC(=O)[C@@H]4CCCN4C(=O)[C@H](CCCNC(=N)N)NC(=O)[C@H](CSSC[C@H](NC(=O)[C@@H](N)CC(=O)O)C(=O)N[C@@H](CC(C)C)C(=O)NCC(=O)N[C@@H](Cc4ccc5ccccc5c4)C(=O)N[C@@H](CCSC)C(=O)N[C@@H](CCCNC(=N)N)C(=O)N[C@@H](CCCCN)C(=O)N2)NC(=O)[C@H](CSSC[C@@H](C(=O)N[C@@H](CCCCN)C(=O)N[C@@H](Cc2ccc(O)cc2)C(=O)N[C@H](C(=O)N[C@@H](Cc2ccc4ccccc4c2)C(N)=O)C(C)C)NC(=O)[C@H](Cc2c[nH]c4ccccc24)NC(=O)[C@H](CCCCN)NC(=O)[C@H](Cc2c[nH]cn2)NC(=O)[C@H]([C@@H](C)O)NC(=O)[C@H](CCCNC(=N)N)NC(=O)[C@H](CO)NC3=O)NC(=O)[C@H](CCCCN)NC(=O)[C@H](CC(=O)O)NC(=O)[C@H](CC(N)=O)NC(=O)[C@H](CC(=O)O)NC(=O)[C@@H]2CCCN2C1=O [compound 136] (H-DCLG[2Nal]MRKCIPDNDKCCRPNLVCSRTHKWCKYV[2Nal]-NH2; disulfide 2-17, 9-23, 16-30) | – | – | – | 30 nM | 5140 nM | 140 nM
CC[C@H](C)[C@@H]1NC(=O)[C@@H]2CSSC[C@@H]3NC(=O)[C@H](C(C)C)NC(=O)[C@H](CC(C)C)NC(=O)[C@H](CC(N)=O)NC(=O)[C@@H]4CCCN4C(=O)[C@H](CCCNC(=N)N)NC(=O)[C@H](CSSC[C@H](NC(=O)[C@@H](N)CC(=O)O)C(=O)N[C@@H](CC(C)C)C(=O)NCC(=O)N[C@@H](Cc4ccc5ccccc5c4)C(=O)N[C@@H](CCSC)C(=O)N[C@@H](CCCNC(=N)N)C(=O)N[C@@H](CCCCN)C(=O)N2)NC(=O)[C@H](CSSC[C@@H](C(=O)N[C@@H](CCCCN)C(=O)N[C@@H](Cc2ccc(O)cc2)C(=O)N[C@H](C(=O)N[C@@H](Cc2cccc4ccccc24)C(N)=O)C(C)C)NC(=O)[C@H](Cc2c[nH]c4ccccc24)NC(=O)[C@H](CCCCN)NC(=O)[C@H](Cc2c[nH]cn2)NC(=O)[C@H]([C@@H](C)O)NC(=O)[C@H](CCCNC(=N)N)NC(=O)[C@H](CO)NC3=O)NC(=O)[C@H](CCCCN)NC(=O)[C@H](CC(=O)O)NC(=O)[C@H](CC(N)=O)NC(=O)[C@H](CC(=O)O)NC(=O)[C@@H]2CCCN2C1=O [compound 137] (H-DCLG[2Nal]MRKCIPDNDKCCRPNLVCSRTHKWCKYV[1Nal]-NH2; disulfide 2-17, 9-23, 16-30) | – | – | – | 20 nM | 3150 nM | 110 nM
CC[C@H](C)[C@@H]1NC(=O)[C@@H]2CSSC[C@@H]3NC(=O)[C@H](C(C)C)NC(=O)[C@H](CC(C)C)NC(=O)[C@H](CC(N)=O)NC(=O)[C@@H]4CCCN4C(=O)[C@H](CCCNC(=N)N)NC(=O)[C@H](CSSC[C@H](NC(=O)[C@@H](N)CC(=O)O)C(=O)N[C@@H](CC(C)C)C(=O)NCC(=O)N[C@@H](Cc4ccccc4)C(=O)N[C@@H](CCSC)C(=O)N[C@@H](CCCNC(=N)N)C(=O)N[C@@H](CCCCN)C(=O)N2)NC(=O)[C@H](CSSC[C@@H](C(=O)N[C@@H](CCCCN)C(=O)N[C@@H](Cc2ccc(O)cc2)C(=O)N[C@H](C(=O)N[C@@H](Cc2cccc4ccccc24)C(=O)N[C@@H](Cc2c[nH]c4ccccc24)C(N)=O)C(C)C)NC(=O)[C@H](Cc2c[nH]c4ccccc24)NC(=O)[C@H](CCCCN)NC(=O)[C@H](Cc2c[nH]cn2)NC(=O)[C@H]([C@@H](C)O)NC(=O)[C@H](CCCNC(=N)N)NC(=O)[C@H](CO)NC3=O)NC(=O)[C@H](CCCCN)NC(=O)[C@H](CC(=O)O)NC(=O)[C@H](CC(N)=O)NC(=O)[C@H](CC(=O)O)NC(=O)[C@@H]2CCCN2C1=O [compound 138] (H-DCLGFMRKCIPDNDKCCRPNLVCSRTHKWCKYV[1Nal]W-NH2; disulfide 2-17, 9-23, 16-30) | – | – | – | 70 nM | 2570 nM | 130 nM
CC[C@H](C)[C@@H]1NC(=O)[C@@H]2CSSC[C@@H]3NC(=O)[C@H](C(C)C)NC(=O)[C@H](CC(C)C)NC(=O)[C@H](CC(N)=O)NC(=O)[C@@H]4CCCN4C(=O)[C@H](CCCNC(=N)N)NC(=O)[C@H](CSSC[C@H](NC(=O)[C@@H](N)CC(=O)O)C(=O)N[C@@H](CC(C)C)C(=O)NCC(=O)N[C@@H](Cc4ccccc4)C(=O)N[C@@H](CCSC)C(=O)N[C@@H](CCCNC(=N)N)C(=O)N[C@@H](CCCCN)C(=O)N2)NC(=O)[C@H](CSSC[C@@H](C(=O)N[C@@H](CCCCN)C(=O)N[C@@H](Cc2ccc(O)cc2)C(=O)N[C@H](C(=O)N[C@@H](Cc2ccc4ccccc4c2)C(=O)N[C@@H](Cc2c[nH]c4ccccc24)C(N)=O)C(C)C)NC(=O)[C@H](Cc2c[nH]c4ccccc24)NC(=O)[C@H](CCCCN)NC(=O)[C@H](Cc2c[nH]cn2)NC(=O)[C@H]([C@@H](C)O)NC(=O)[C@H](CCCNC(=N)N)NC(=O)[C@H](CO)NC3=O)NC(=O)[C@H](CCCCN)NC(=O)[C@H](CC(=O)O)NC(=O)[C@H](CC(N)=O)NC(=O)[C@H](CC(=O)O)NC(=O)[C@@H]2CCCN2C1=O [compound 139] (H-DCLGFMRKCIPDNDKCCRPNLVCSRTHKWCKYV[2Nal]W-NH2; disulfide 2-17, 9-23, 16-30) | – | – | – | 50 nM | 2120 nM | 110 nM
CC[C@H](C)[C@@H]1NC(=O)[C@@H](NC(=O)[C@H](CCCCN)NC(=O)[C@H](CCCNC(=N)N)NC(=O)[C@H](CCSC)NC(=O)[C@H](Cc2ccccc2)NC(=O)CNC(=O)[C@H](CC(C)C)NC(=O)[C@H](C)NC(=O)[C@@H](N)CC(=O)O)CSSC[C@@H]2NC(=O)[C@H](C(C)C)NC(=O)[C@H](CC(C)C)NC(=O)[C@H](CC(N)=O)NC(=O)[C@@H]3CCCN3C(=O)[C@H](CCCNC(=N)N)NC(=O)[C@H](C)NC(=O)[C@H](CSSC[C@@H](C(=O)N[C@@H](CCCCN)C(=O)N[C@@H](Cc3ccc(O)cc3)C(=O)N[C@H](C(=O)N[C@@H](Cc3ccccc3)C(N)=O)C(C)C)NC(=O)[C@H](Cc3c[nH]c4ccccc34)NC(=O)[C@H](CCCCN)NC(=O)[C@H](Cc3c[nH]cn3)NC(=O)[C@H]([C@@H](C)O)NC(=O)[C@H](CCCNC(=N)N)NC(=O)[C@H](CO)NC2=O)NC(=O)[C@H](CCCCN)NC(=O)[C@H](CC(=O)O)NC(=O)[C@H](CC(N)=O)NC(=O)[C@H](CC(=O)O)NC(=O)[C@@H]2CCCN2C1=O [compound 140] (H-DALGFMRKCIPDNDKCARPNLVCSRTHKWCKYVF-NH2; disulfide 9-23, 16-30) | – | – | – | 790 nM | 18900 nM | 2450 nM
